Experimental data: PubChem BioAssay (NCI)
Values joined by “and” are separate entries in the source; they are usually repeats but may differ in a detail not shown here. Identical values can stand only once.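 Results reflect a 48-hour exposure of cells in 96-well plates to compound at five concentrations. GI50 is the concentration that inhibits growth by half. TGI: total growth inhibition.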

Legend:
Test in all cases: NCI-60 cell line screen, 48 h
NCI-H226 lung = system: NCI-H226 lung
RPMI-8226 leukemia = system: RPMI-8226 leukemia
786-0 renal = system: 786-0 renal
CAKI-1 renal = system: CAKI-1 renal
SR leukemia = system: SR leukemia
SN12C renal = system: SN12C renal
BT-549 breast = system: BT-549 breast
OVCAR-3 ovarian = system: OVCAR-3 ovarian
KM12 colon = system: KM12 colon
NCI-H522 lung = system: NCI-H522 lung

SMILES	GI50 (NCI-H226 lung) [µM]	TGI (NCI-H226 lung) [µM]	GI50 (RPMI-8226 leukemia) [µM]	TGI (RPMI-8226 leukemia)	GI50 (786-0 renal) [µM]	TGI (786-0 renal)	GI50 (CAKI-1 renal) [µM]	TGI (CAKI-1 renal)	GI50 (SR leukemia) [µM]	TGI (SR leukemia) [µM]	GI50 (SN12C renal) [µM]	TGI (SN12C renal)	GI50 (BT-549 breast) [µM]	TGI (BT-549 breast)	GI50 (OVCAR-3 ovarian) [µM]	TGI (OVCAR-3 ovarian)	GI50 (KM12 colon) [µM]	TGI (KM12 colon)	GI50 (NCI-H522 lung) [µM]	TGI (NCI-H522 lung)
CCN1CCN(c2nc(NNC(=O)c3ccccc3)nc(N3CCN(C(c4ccccc4)c4ccccc4)CC3)n2)CC1	11.9	29.5	1.65	4.1 µM	1.82	3.47 µM	2.21	5.76 µM	1.78	4.69	2.89	8.97 µM	2.49	7.6 µM	3.43	13.2 µM	3.42	11.8 µM	2.69	7.65 µM
Cc1ccc(C2=C(Cl)C(=O)C(c3ccc(C)cc3)=C(Cl)C2=O)cc1	–	> 100	–	> 100 µM	–	> 100 µM	–	> 100 µM	–	> 100	–	> 100 µM	–	> 100 µM	–	> 100 µM	–	> 100 µM	–	> 100 µM
O=C(Nc1ccc(C(F)(F)F)cc1[N+](=O)[O-])c1cccnc1	–	> 100	–	> 100 µM	–	> 100 µM	–	8.11 µM	–	> 100	–	> 100 µM	–	> 100 µM	–	7.29 µM	–	> 100 µM	–	36.1 µM
COc1ccc(/C(CC2OC(=O)c3ccccc32)=N\NC(N)=O)cc1 (configuration not stated)	–	> 100	–	> 100 µM	–	> 100 µM	–	> 100 µM	–	> 100	–	> 100 µM	–	> 100 µM	–	> 100 µM	–	> 100 µM	–	> 100 µM
CC1OC(OC2C(O[C@H]3CC[C@@]4(C)C(=CC[C@H]5[C@@H]6C[C@@H]7O[C@]8(CC[C@@H](C)CO8)[C@@H](C)[C@@H]7[C@@]6(C)CC[C@@H]54)C3)OC(CO)C(OC3OC(CO)C(O)C3O)C2O)C(O)C(O)C1O (some centres not stated)	–	1.73	0.212	2.71 µM and 0.586 µM	0.221	1.34 µM and 0.464 µM	0.602	1.76 µM and 1.86 µM	–	2.25	0.243	1.22 µM and 0.678 µM	1.37	1.84 µM and 2.66 µM	1.49	1.79 µM and 2.82 µM	0.287	2.39 µM and 0.849 µM	1.23	1.77 µM and 2.47 µM
CCN(CC)CCOc1ccc2c(C)c(C(=O)OC)oc2c1C(=O)/C=C/c1ccc(OC)cc1	25.3	44.9	1.58	4.42 µM	16.6	> 45.7 µM	3.82	10.7 µM	0.565	2.95	0.166	2.66 µM	20.6	39.4 µM	4.36	12.2 µM	1.76	3.96 µM	4.3	15.2 µM
NC(N)=N/N=C/c1c(-c2ccncc2)nc2sc(Cl)cn12	3.98	15.2	6.52	21.1 µM	6.63	17 µM	18.1	34.7 µM	2.24	4.97	2.59	8.58 µM	10.3	27.8 µM	5.55	11.6 µM	2.48	10.8 µM	10.1	> 28.5 µM
CN(C)c1ccc(N=C2C=CC(=C(C#N)C#N)c3ccccc32)cc1	–	0.741	–	11.6 µM	–	11.4 µM	–	12.7 µM	–	48.1	–	15.9 µM	–	5.12 µM	–	1.46 µM	–	12 µM	–	0.305 µM
CC1=C2[C@@H](CC1)[C@]1(C)O[C@@](C3CC3)(C[C@H]1OC(=O)CO)[C@H]2OC(=O)/C=C/c1ccccc1	16.2	36.5	19.8	54.4 µM	3.19	25.7 µM	10.9	24 µM	13.5	39.2	0.736	25.4 µM	0.148	7.74 µM	15.3	29.2 µM	16.6	32.3 µM	15.9	32.4 µM
COc1cccc(C2C(C#N)=C(N)Oc3cc4c(cc32)OCO4)c1 (configuration not stated)	0.0455	2.43	0.0828	29.9 µM	0.0621	24.1 µM	0.0409	42.6 µM	0.0291	27.8	0.0778	> 46.2 µM	0.0874	5 µM	0.0264	0.0661 µM	0.0404	4.27 µM	0.0185	0.0715 µM
O=c1[nH]c2ccc([N+](=O)[O-])c(Cl)c2c2ccccc12	–	43.9	–	33.7 µM	–	48.3 µM	–	13.2 µM	–	7.59	–	14.4 µM	–	21.2 µM	–	17.6 µM	–	4.52 µM	–	11.7 µM
C=C(Cn1c2ccccc2c(=O)c2ccccc21)c1ccc(C(=O)Nc2ccccc2N)cc1	> 24.8	> 100	0.36	3.06 µM	1.89	> 100 µM	> 26	> 100 µM	0.605	2.25	> 100	> 100 µM	4.07	> 100 µM	6.5	> 100 µM	2.43	> 100 µM	2.72	> 100 µM
O=C(OC[C@@H]1CO1)c1cccc2c(=O)c3ccccc3[nH]c12	0.301	1.48	0.33	1.84 µM	0.349	2.69 µM	0.2	0.687 µM	0.0604	–	0.196	1.41 µM	0.338	2.86 µM	0.276	1.14 µM	0.245	0.771 µM	0.421	2.2 µM
N#CCCN(CCC#N)c1ccc(C=Nc2ccc(F)cc2)cc1	–	> 100	–	> 100 µM	–	> 100 µM	–	> 100 µM	–	> 100	–	> 100 µM	–	> 100 µM	–	> 100 µM	–	> 100 µM	–	> 100 µM
COc1cc(/C=C\c2cc(OC)c(OC)c(OC)c2)cc(NS(=O)(=O)c2ccc(Cl)cc2)c1OC	13.5	> 100	0.387	33.2 µM	0.666	> 100 µM	0.374	50 µM	0.406	10.5	0.75	> 100 µM	0.966	77 µM	0.364	> 100 µM	0.572	> 100 µM	0.209	0.87 µM
O=c1nc2[nH]c3c(-c4n[nH]c(=O)[nH]c4=O)cccc3c2n[nH]1	> 100	> 100	> 100	> 100 µM	> 100	> 100 µM	> 100	> 100 µM	> 100	> 100	> 100	> 100 µM	> 100	> 100 µM	> 100	> 100 µM	> 100	> 100 µM	> 100	> 100 µM
CCCCC[C@@H](C/C=C/CCC(=O)NC/C(=C/Cl)[C@H]1C(=O)C(C)(C)C(=O)[C@@H](C)[C@@]1(C)O)OC	18	36.1	6.23	23 µM	1.58	16.9 µM	18.2	34.1 µM	20.7	41.3	17.3	32 µM	17.9	32.7 µM	16.3	30.5 µM	17.5	32.7 µM	13.9	28 µM
